These are literature values, as cited in patent publication US11779563B2, “Oral cannabinoid pharmaceutical compositions and methods of treating sleep disorders” (Curio IP, LLC, priority 2021, dated 2023).

The conditions of this data set: following smoking of the equivalent of 10-15 mg over 5-7 minutes.

As for `CCCCCc1cc(O)c2c(c1)OC(C)(C)[C@@H]1CCC(C)=C[C@@H]21` [THC, (−)-(6aR,10aR)-6,6,9-trimethyl-3-pentyl-6a,7,8,10a-tetrahydro-6H-benzo[c]chromen-1-ol], the peak plasma levels entry is “around 100 μg/L”.
